One experiment relates to NCI-H2228 cells (tumor). Description: Antitumor test (in vivo) on NCI-H2228 cells (Test Example 8). Conditions: oral 3 mg/kg once a day for 14 days, NOD/SCID mice; tumor volume. Here is the method: 3×10^6 cells of NCI-H2228 cells suspended in PBS were inoculated subcutaneously by injection to the back of 5 weeks old male NOD/SCID mice (Charles River Japan, Inc.). After 3 weeks of the inoculation, the administration of test compounds was initiated. The test was conducted in the solvent group and test compound groups, 6 animals per group. The test compounds were each dissolved in a solvent composed of 10% 1-methyl-2-pyrrolidinone (SIGMA-ALDRICH Inc.)/90% polyethylene glycol 300 (Fluka Inc.) and administered orally at a dose of 3 mg/kg. Administrations were performed once a day for 14 days, and body weight and tumor size were measured every other day. Tumor volume was calculated using the following formula.
[Tumor volume (mm^3)]=[Tumor major axis (mm)]×[tumor minor axis (mm)]^2×0.5

Experiment [1] concerns human non-small cell lung cancer cell line NCI-H2228 cells (EML4-ALK fusion protein-expressing cells). Briefly: Inhibitory effect against anchorage-independent cell growth of NCI-H2228 cells (Test Example 3). The class given is cell-based. Conditions: 120 h, spheroid plate, 5 days, CellTiter-Glo. A general note: Cellular ATP, detected with luciferase, serves as a proxy for viable cell number.

The subject of experiment [2] is human non-small cell lung cancer cell line HCC827 cells (mutant EGFR protein-expressing cells). Description: Inhibitory effect against anchorage-independent cell growth of HCC827 cells (Test Example 4). Conditions: 120 h, spheroid plate, 5 days, CellTiter-Glo. The class given is cell-based.
A further experiment deals with T1, MUSK (Homo sapiens, UniProt O15146).
T1 sequence (O15146 24-869): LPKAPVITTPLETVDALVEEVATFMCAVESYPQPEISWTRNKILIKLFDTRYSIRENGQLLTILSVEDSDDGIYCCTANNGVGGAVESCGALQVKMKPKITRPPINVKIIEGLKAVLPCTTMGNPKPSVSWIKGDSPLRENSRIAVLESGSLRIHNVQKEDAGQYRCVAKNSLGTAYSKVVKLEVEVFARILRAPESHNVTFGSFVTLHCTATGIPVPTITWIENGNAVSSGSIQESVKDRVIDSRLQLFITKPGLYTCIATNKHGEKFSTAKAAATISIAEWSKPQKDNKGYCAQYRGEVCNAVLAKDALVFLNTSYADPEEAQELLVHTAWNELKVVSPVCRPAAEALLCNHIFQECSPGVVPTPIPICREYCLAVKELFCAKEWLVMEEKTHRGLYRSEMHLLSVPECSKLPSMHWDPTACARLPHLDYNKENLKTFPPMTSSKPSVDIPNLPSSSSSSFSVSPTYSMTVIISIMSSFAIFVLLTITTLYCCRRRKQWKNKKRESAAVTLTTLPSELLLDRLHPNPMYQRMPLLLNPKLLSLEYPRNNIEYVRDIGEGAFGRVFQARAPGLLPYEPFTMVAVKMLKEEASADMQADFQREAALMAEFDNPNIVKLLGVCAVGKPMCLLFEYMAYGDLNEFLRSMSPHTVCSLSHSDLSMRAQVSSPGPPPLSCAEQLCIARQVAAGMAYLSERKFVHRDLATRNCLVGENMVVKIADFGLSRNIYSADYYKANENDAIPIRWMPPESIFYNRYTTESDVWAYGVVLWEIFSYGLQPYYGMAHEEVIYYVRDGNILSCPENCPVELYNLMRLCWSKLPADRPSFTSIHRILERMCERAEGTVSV
Briefly: Inhibitory activity against the kinase activity of MUSK protein (Test Example 7). It counts as biochemical. On the set-up: purchased Carna Biosciences Inc., Japan. Conditions: ATP 10 μM, reaction 1 hour, HTRF KinEASE-TK. The method, then:
MUSK protein (Carna Biosciences Inc., Japan) was investigated for its phosphorylation activity toward a peptide substrate by using a kinase activity detection kit (HTRF KinEASE-TK; Cisbio Inc.). […] The ATP concentration used was 10 μM. Another reaction solution was prepared to contain the enzyme protein but no test compound (in which the solvent DMSO alone was added at 0.4% in place of the test compound), followed by reaction in the same manner with or without ATP addition. […] The concentration causing 50% inhibition (IC50) was calculated for each test compound by the logistic regression method.

The target of experiment [3] is T2, Mutant EGFR (L858R) protein (Homo sapiens, UniProt P00533, L858R).
T2 construct: purchased Cana Biosciences Inc., Japan (sic; Carna Biosciences)
T2 sequence (P00533 25-1210 L858R): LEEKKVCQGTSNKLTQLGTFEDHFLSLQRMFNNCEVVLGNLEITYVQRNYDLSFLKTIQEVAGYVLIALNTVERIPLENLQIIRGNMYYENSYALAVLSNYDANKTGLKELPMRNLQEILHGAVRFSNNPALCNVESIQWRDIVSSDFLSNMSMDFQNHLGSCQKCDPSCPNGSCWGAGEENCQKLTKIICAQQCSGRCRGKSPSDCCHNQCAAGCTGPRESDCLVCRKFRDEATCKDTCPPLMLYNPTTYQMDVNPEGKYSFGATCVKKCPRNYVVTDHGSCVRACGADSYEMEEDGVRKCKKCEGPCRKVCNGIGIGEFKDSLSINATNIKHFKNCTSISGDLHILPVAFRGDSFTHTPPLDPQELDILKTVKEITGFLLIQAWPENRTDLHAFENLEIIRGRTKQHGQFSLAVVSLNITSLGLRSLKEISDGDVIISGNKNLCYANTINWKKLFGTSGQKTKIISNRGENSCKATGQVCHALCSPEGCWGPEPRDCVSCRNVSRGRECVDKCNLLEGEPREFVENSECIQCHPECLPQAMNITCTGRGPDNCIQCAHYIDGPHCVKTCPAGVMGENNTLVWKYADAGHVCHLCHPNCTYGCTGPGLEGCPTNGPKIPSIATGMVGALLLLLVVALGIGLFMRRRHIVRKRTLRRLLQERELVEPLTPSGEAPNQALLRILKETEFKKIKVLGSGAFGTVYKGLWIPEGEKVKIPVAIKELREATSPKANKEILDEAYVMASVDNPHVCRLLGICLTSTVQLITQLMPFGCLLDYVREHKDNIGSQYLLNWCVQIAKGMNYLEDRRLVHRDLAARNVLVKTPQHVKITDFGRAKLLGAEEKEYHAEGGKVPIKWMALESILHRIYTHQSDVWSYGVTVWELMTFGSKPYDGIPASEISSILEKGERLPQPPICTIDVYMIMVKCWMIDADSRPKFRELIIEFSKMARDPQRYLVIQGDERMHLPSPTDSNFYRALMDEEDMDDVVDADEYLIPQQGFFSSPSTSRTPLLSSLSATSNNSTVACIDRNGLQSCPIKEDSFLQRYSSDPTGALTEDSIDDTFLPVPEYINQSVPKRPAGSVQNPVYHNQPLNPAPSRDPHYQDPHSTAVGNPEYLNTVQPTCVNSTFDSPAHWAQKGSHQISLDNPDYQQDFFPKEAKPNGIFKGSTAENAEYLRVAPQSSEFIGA
Description: Inhibitory activity against the kinase activity of mutant EGFR (L858R) protein (Test Example 2). The class given is biochemical. Conditions: ATP 5 μM, reaction 1 hour, HTRF KinEASE-TK. Here is the method: The ATP concentration used was 5 μM. Another reaction solution was prepared to contain the enzyme protein but no test compound (in which the solvent DMSO alone was added at 0.4% in place of the test compound), followed by reaction in the same manner with or without ATP addition. […] The concentration causing 50% inhibition (IC50) was calculated for each test compound by the logistic regression method.

By IC50 is commonly meant the midpoint of a concentration-inhibition curve.

For the molecule `COc1cc(N2CCC(N3CCN(C)CC3)CC2)ccc1Nc1ncnc(Nc2ccccc2S(=O)(=O)C(C)C)n1` [Example 23], the “inhibition of the growth of NCI-H2228 cells (tumor)” value in the experiment with NCI-H2228 cells (tumor) amounted to 116%. Moreover, the IC50 was 71 nM in experiment [1], 272 nM in experiment [2], 1500 nM against MUSK and 120 nM in experiment [3].
In the same order, the values of `CCNS(=O)(=O)c1ccccc1Nc1ncnc(Nc2ccc(N3CCC(N4CCN(C)CC4)CC3)cc2OC)n1` [Example 123] are 108%, 30 nM, 238 nM, 1100 nM and 100 nM.
